{
  "source": "patent US9861640B2",
  "about": "“Medicament for treatment of Alzheimer's disease” (KEMPHYS LTD., priority 2013, dated 2018)",
  "key": {"[1]": {"system": "rat primary microglia", "assay": "Clearance of 125I-labeled oligomeric Aβ1-42 by rat primary microglia", "assay_type": "cell-based", "details": "5 μM each 48 h, then 6 h with 125I-o-Aβ1-42 1 μg/ml, vs vehicle-treated cells", "source_text": "Primary microglia (type 1) were harvested from primary mixed glial cell cultures prepared from neonatal Wistar rat pups, as previously reported. Mouse microglial cell line MG5 and mouse glial cell line A1 were maintained as previously described. Mouse neuroblastoma cell line N1E-115 and Neuro 2a (American Type Culture Collection, Manassas, Va., USA) were maintained in Dulbecco's modified Eagle's medium (DMEM) supplemented with 10% fetal bovine serum (FBS), 20 U/ml penicillin (Invitrogen, Gaithersburg, Md., USA), and 20 μg/ml streptomycin (Invitrogen). Primary rat microglia were treated with Am80 (5 μM) and/or HX630 (5 μM) in the presence and absence of GW9662 (10 μM) for 48 h in Eagle's MEM supplemented with 10% FBS and 0.2% glucose. MG5 cells and A1 cells were treated with Am80 (5 μM) and/or HX630 (5 μM) for 48 h in DMEM containing 10% FBS. N1E-115 cells were treated with Am80 (5 μM) and/or HX630 (5 μM) for 5 days in DMEM containing 2% FBS.\n^125I-Labeled oligomeric Aβ1-42 (o-Aβ1-42) was prepared as described. Cells were cultured in 24-well plates for 48 h in Eagle's MEM supplemented with 10% FBS in the presence or absence of Am80 (5 μM) and HX630 (5 μM). After the 48-h treatment, the cells were washed twice with labeling medium (DMEM containing 3% BSA) and then incubated with ^125I-labeled o-Aβ1-42 for 6 h at 37° C. Following the 6-h incubation, medium was removed from each well, and soluble radioactivity in TCA (degraded and extracellularly released peptide fragments) was determined as an index of Aβ degradation in the medium as described previously. The Aβ degradation activity may thus include both receptor-mediated phagocytic activity and extracellular protease-mediated degradation. Cells were washed three times with PBS, then lysed with 0.4 ml of 0.1 M NaOH for 30 min at 37° C., and cell-associated (including cell-incorporated) radioactivity and cell proteins were determined with an autogamma counter and the BCA Protein Assay Reagent (Pierce), respectively. We could not determine the activity of IDE-dependent degradation in this medium, because the incubation medium was replaced with labeling medium prior to incubation with ^[…]."}, "[2]": {"system": "IDE", "assay": "Immunoblot of IDE in brains of APP23 mice", "assay_type": "in vivo, mouse", "details": "day 18, vs vehicle-treated APP23 mice, P<0.05", "procedure": "APP23 mice begin forming amyloid deposits when they are 6 months old, but memory deficits in the MWM test appear quite early (before 3 months of age). Here, we used 8.5-month-old male APP23 mice and their WT littermates (C57BL/6J). We used stratified random sampling to divide mice (four to six per cage) into four groups to equalize the mean body weight of the study groups: mice given 0.5 mg/kg/d Am80, those given 5 mg/kg/d HX630, those given the mixture of 0.5 mg/kg/d Am80 and 5 mg/kg/d HX630, and those given the vehicle. Am80 and HX630 were suspended in 0.5% (w/v) carboxymethylcellulose solution and were orally administered to mice at 0.5 mg/kg (Am80) or 5 mg/kg (HX630) for 17 consecutive days (once daily at 18:00). Control animals received the same volume of 0.5% (w/v) carboxymethylcellulose solution orally, without the other compounds. We set the 0.5 mg/kg/d dose for Am80 on the basis that this had been found effective in other in vivo studies, such as those by Kawahara et al. and Ishido and Shudo [37]. Higher doses of Am80 (3 mg/kg/d and 6 mg/kg/d) were also orally administered to mice for 17 consecutive days. Animals were weighed once a week. Mice were subjected to behavioral testing on days 15-18 of the first oral administration of the compounds (at 19:00-23:00). On days 15-17 (not day 18), animals received the compounds at 24:00, after behavioral testing. […]"}},
  "data": [
    {"smiles": "CN1c2ccccc2N=C(c2ccc(C(=O)O)cc2)c2cc3c(cc21)C(C)(C)CCC3(C)C", "note": "[HX630, 4-[5H-2,3-(2,5dimethyl-2,5-hexano)-5-methyldibenzo[b,e]-diazepin-11-yl]benzoic acid]", "values": [
      {"measurement": "degradation activity towards 125I-labeled oligomeric Aβ1-42", "setting": "[1]", "value": "increased"},
      {"measurement": "IDE protein level in the membrane-bound fraction", "setting": "[2]", "value": "increased significantly"}
    ]}
  ]
}
